Data as given in patent US11878975B2, “Substituted indole compounds useful as TLR inhibitors” (BRISTOL-MYERS SQUIBB COMPANY, priority 2017, dated 2024).

How the values were obtained:
Type in all cases: cell-based
human TLR7 = molecular target: T1, human TLR7 (Homo sapiens, UniProt Q9NYK1); test: TLR7 inhibition reporter assay (HEK-Blue cells, SEAP reporter, gardiquimod stimulation); settings: HEK-Blue cells overexpressing human TLR7, SEAP reporter, gardiquimod 7.5 μM
T1 construct: host or cells: HEK-Blue cells
T1 sequence (Q9NYK1 27-1049): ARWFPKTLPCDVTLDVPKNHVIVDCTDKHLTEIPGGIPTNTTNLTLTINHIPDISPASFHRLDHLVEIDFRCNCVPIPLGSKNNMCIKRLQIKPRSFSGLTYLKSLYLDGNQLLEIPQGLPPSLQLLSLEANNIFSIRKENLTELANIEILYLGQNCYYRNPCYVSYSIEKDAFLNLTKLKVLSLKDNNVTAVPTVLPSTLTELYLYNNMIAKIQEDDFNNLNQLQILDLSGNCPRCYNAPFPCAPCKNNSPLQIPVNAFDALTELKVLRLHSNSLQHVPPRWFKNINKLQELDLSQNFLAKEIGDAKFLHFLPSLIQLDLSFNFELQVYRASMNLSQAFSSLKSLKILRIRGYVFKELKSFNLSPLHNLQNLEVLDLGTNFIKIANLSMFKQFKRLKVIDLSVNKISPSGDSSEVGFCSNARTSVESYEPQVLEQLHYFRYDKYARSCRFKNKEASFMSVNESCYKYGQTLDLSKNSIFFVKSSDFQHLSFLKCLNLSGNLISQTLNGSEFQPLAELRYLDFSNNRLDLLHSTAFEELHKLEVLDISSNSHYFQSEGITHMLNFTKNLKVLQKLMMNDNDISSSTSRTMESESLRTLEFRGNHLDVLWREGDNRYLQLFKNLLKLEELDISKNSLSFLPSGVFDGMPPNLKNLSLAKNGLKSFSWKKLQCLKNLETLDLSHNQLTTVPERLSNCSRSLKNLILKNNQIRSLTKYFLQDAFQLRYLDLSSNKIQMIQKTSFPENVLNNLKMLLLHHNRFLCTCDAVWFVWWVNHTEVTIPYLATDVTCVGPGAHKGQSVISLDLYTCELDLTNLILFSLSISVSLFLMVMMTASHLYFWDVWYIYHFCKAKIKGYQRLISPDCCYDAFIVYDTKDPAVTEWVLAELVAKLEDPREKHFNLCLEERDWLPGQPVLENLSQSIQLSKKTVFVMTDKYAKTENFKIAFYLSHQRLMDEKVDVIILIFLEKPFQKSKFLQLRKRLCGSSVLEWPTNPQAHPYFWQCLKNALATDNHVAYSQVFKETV
Protocol: (§1) TLR7/8/9 Inhibition Reporter Assays
(§2) HEK-Blue™-cells (Invivogen) overexpressing human TLR7, TLR8 or TLR9 receptors were used for screening inhibitors of these receptors using an inducible SEAP (secreted embryonic alkaline phosphatase) reporter gene under the control of the IFN-β minimal promoter fused to five NF-κB and AP-1-binding sites. Briefly, cells are seeded into Greiner 384 well plates (15000 cells per well for TLR7, 20,000 for TLR8 and 25,000 for TLR9) and then treated with test compounds in DMSO to yield a final dose response concentration range of 0.05 nM-50 μM. After a 30 minute compound pre-treatment al room temperature, the cells are then stimulated with a TLR7 ligand (gardiquimod at a final concentration of 7.5 μM), TLR8 ligand (R848 at a final concentration of 15.9 μM) or TLR9 ligand (ODN2006 at a final concentration of 5 nM) to activate NF-κB and AP-1 which induce the production of SEAP. After a 22 hour incubation at 37° C., 5% CO2, SEAP levels are determined with the addition of HEK-Blue™ Detection reagent (Invivogen), a cell culture medium that allows for detection of SEAP, according to manufacturer's specifications. The percent inhibition is determined as the % reduction in the HEK-Blue signal present in wells treated with agonist plus DMSO alone compared to wells treated with a known inhibitor.

human TLR9 = molecular target: T2, human TLR9 (Homo sapiens, UniProt Q9NR96); test: TLR9 inhibition reporter assay (HEK-Blue cells, SEAP reporter, ODN2006 stimulation); settings: HEK-Blue cells overexpressing human TLR9, SEAP reporter, ODN2006 5 nM
T2 construct: host or cells: HEK-Blue cells
T2 sequence (Q9NR96 26-1032): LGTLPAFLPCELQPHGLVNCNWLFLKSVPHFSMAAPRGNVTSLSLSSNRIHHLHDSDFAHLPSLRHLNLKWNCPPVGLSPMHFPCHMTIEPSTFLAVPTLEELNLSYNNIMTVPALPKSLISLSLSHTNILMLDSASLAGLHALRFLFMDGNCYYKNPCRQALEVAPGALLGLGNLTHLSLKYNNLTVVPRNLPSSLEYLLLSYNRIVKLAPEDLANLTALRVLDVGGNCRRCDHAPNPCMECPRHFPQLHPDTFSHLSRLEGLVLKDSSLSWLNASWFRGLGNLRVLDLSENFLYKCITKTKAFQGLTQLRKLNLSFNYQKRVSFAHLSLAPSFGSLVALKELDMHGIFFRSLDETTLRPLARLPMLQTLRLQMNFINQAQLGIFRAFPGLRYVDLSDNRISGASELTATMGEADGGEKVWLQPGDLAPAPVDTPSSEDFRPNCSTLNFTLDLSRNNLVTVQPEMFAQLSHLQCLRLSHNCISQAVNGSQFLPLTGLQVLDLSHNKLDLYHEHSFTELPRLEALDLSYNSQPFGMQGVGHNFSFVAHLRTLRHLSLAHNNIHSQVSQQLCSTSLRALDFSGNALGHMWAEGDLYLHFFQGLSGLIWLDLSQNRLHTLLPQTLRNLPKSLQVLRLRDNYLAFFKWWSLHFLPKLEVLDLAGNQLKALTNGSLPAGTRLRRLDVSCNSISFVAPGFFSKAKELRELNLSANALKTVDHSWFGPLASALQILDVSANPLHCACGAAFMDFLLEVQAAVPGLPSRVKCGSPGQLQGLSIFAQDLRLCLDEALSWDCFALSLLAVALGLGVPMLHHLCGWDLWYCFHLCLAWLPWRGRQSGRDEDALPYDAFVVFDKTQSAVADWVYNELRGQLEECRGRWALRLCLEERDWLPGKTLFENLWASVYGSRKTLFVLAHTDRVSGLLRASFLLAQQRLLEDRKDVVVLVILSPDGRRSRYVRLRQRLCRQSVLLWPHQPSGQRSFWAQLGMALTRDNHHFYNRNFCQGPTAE
Protocol: as §1, §2

human TLR8 = molecular target: T3, human TLR8 (Homo sapiens, UniProt Q9NR97); test: TLR8 inhibition reporter assay (HEK-Blue cells, SEAP reporter, R848 stimulation); settings: HEK-Blue cells overexpressing human TLR8, SEAP reporter, R848 15.9 μM
T3 construct: host or cells: HEK-Blue cells
T3 sequence (Q9NR97 27-1041): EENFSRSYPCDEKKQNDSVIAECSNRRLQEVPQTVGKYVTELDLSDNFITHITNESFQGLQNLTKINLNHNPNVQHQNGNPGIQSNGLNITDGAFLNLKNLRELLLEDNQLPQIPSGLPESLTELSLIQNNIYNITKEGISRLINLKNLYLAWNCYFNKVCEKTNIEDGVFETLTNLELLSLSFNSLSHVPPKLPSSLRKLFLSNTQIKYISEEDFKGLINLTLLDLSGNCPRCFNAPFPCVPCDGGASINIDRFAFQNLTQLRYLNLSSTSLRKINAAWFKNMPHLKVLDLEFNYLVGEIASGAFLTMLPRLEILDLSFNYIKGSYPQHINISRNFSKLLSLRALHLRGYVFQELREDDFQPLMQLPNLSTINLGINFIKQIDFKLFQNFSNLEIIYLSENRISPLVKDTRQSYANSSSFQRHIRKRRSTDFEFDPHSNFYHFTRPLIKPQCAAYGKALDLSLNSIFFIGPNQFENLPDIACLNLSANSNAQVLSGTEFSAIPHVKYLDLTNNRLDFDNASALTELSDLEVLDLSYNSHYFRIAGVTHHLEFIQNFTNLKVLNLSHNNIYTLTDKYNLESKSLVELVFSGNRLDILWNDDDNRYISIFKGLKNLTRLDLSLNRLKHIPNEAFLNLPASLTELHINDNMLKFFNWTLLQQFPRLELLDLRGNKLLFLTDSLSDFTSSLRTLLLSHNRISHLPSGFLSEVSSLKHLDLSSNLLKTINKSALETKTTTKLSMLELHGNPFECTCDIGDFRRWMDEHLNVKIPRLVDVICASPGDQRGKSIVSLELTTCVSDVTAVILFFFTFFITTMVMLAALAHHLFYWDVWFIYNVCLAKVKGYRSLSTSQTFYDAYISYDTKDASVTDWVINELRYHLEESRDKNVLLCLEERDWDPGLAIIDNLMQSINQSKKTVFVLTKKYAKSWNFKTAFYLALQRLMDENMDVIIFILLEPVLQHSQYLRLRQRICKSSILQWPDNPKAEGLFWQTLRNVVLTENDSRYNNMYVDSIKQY
Protocol: as §1, §2

Row | SMILES | IC50 (human TLR7) [nM] | IC50 (human TLR9) [nM] | IC50 (human TLR8) [nM]
1 | COc1cc(-c2[nH]c3ccc(C4CCC(N)CC4)cc3c2C(C)C)cn2ncnc12 (single isomer, unassigned) [Example 1, 4-(3-isopropyl-2-(8-methoxy-[1,2,4]triazolo[1,5-a]pyridin-6-yl)-1H-indol-5-yl) cyclohexanamine] | 0.49 | 793 | 1.3
2 | COc1cc(-c2[nH]c3ccc(C4CCC(N)CC4)cc3c2C(C)C)cn2ncnc12 (single isomer, unassigned) [Example 2, 4-(3-isopropyl-2-(8-methoxy-[1,2,4]triazolo[1,5-a]pyridin-6-yl)-1H-indol-5-yl) cyclohexanamine] | 0.37 | 3420 | 1.1
3 | Cc1cc(-c2[nH]c3ccc(C4CCC(N)CC4)cc3c2C(C)C)cn2ncnc12 (single isomer, unassigned) [Example 3] | 0.15 | 1290 | 1
4 | Cc1cc(-c2[nH]c3ccc(C4CCC(N)CC4)cc3c2C(C)C)cn2ncnc12 (single isomer, unassigned) [Example 4] | 6 | 3170 | 45
5 | COc1cc(-c2[nH]c3ccc(C4CCC(N(C)C(C)C)CC4)cc3c2C(C)C)cn2ncnc12 (single isomer, unassigned) [Example 6, N-isopropyl-4-(3-isopropyl-2-(8-methoxy-[1,2,4]triazolo[1,5-a]pyridin-6-yl)-1H-indol-5-yl)-N-methylcyclohexanamine] | 0.33 | 1210 | 1
6 | COc1cc(-c2[nH]c3ccc(C4CCC(N(C)C(C)C)CC4)cc3c2C(C)C)cn2ncnc12 (single isomer, unassigned) [Example 7, N-isopropyl-4-(3-isopropyl-2-(8-methoxy-[1,2,4]triazolo[1,5-a]pyridin-6-yl)-1H-indol-5-yl)-N-methylcyclohexanamine] | 1 | 2000 | 4.4
7 | Cc1cc(-c2[nH]c3ccc(C4CCC(N(C)C5CC5)CC4)cc3c2C(C)C)cn2ncnc12 (single isomer, unassigned) [Example 8] | 6 | 3690 | 16
8 | Cc1cc(-c2[nH]c3ccc(C4CCC(N(C)C5CC5)CC4)cc3c2C(C)C)cn2ncnc12 (single isomer, unassigned) [Example 9] | 0.36 | 1880 | 1.8
9 | Cc1cc(-c2[nH]c3ccc(C4CCC(NC5CC5)CC4)cc3c2C(C)C)cn2ncnc12 (single isomer, unassigned) [Example 15] | 4 | 3590 | 8.9
10 | Cc1cc(-c2[nH]c3ccc(C4CCC(NC5CC5)CC4)cc3c2C(C)C)cn2ncnc12 (single isomer, unassigned) [Example 16] | 0.15 | 661 | 0.47
11 | COc1cc(-c2[nH]c3ccc(C4CCC(N5CC(O)C5)CC4)cc3c2C(C)C)cn2ncnc12 (single isomer, unassigned) [Example 20] | 0.3 | 346 | 0.81
12 | Cc1cc(-c2[nH]c3ccc(C4CCC(C)(O)CC4)cc3c2C(C)C)cc(C)n1 (single isomer, unassigned) [Example 170] | 13 |  | 590
13 | COc1cc(-c2[nH]c3ccc(C4CCC(NC(=O)CN5CC(CO)(CO)C5)CC4)cc3c2C(C)C)cn2ncnc12 (stereo not shown) [Example 134] | 1 |  | 2.5
14 | COc1cc(-c2[nH]c3ccc(C4CCC(NC(=O)CNCC5COC(C)(C)O5)CC4)cc3c2C(C)C)cn2ncnc12 (stereo not shown) [Example 136] |  | 19200 | 7.2
15 | CN[C@H](C)C(=O)N1CCCC(c2ccc3[nH]c(-c4cc(C)nc(C)c4)c(C(C)C)c3c2)C1 (stereo partly shown) [Example 221] |  | 357 | 4.4
16 | CCN(CC)CC(=O)N1CCOC(c2ccc3[nH]c(-c4cc(OC)c5ncnn5c4)c(C(C)C)c3c2)C1 (stereo not shown) [Example 333] | 0.71 |  | 4.7
17 | Cc1c(-c2[nH]c3ccc(C4CNC4)cc3c2C(C)C)cn(C)c(=O)c1C [Example 486] | 19 |  | 13
18 | Cc1c(-c2[nH]c3ccc(C4CC(NC5COC5)C4)cc3c2C(C)C)cn2ncnc2c1C (stereo not shown) [Example 576] | 23 |  | 7.4
19 | Cc1c(-c2[nH]c3ccc(C4CC(NCC#N)C4)cc3c2C(C)C)cn2ncnc2c1C (stereo not shown) [Example 577] | 4 |  | 4.5
